The assay relates to HCV 1b genotype. As to the kind of experiment: HCV Replicon assay (HCV 16-377-neo replicon cells). The conditions noted are these: Hepatitis C virus; HCV 1b genotype replicon cells; read-out: EC50 ranges against HCV 1b. In kind it is cell-based. Here is the method:
An HCV Replion assay was utilized in the present disclosure, and was prepared, conducted and validated as described in commonly owned PCT/US2006/022197 and in O'Boyle et. al. Antimicrob Agents Chemother. 2005 Apr;49(4): 1346-53.
HCV 16-377-neo replicon cells were used to test the currently described compound series as well as cells resistant to compound A due to a Y2065H mutation in NS5A (described in application PCT/US2006/022197). The compounds tested were determined to have more than 10-fold less inhibitory activity on cells resistant to compound A than wild-type cells indicating a related mechanism of action between the two compound series. Thus, the compounds of the present disclosure can be effective to inhibit the function of the HCV NS5A protein and are understood to be as effective in combinations as previously described in application PCT/US2006/022197 and commonly owned WO/O4014852. Further, the compounds of the present disclosure can be effective against the HCV 1b genotype. It should also be understood that the compounds of the present disclosure can inhibit multiple genotypes of HCV. […] In one embodiment compounds of the present disclosure are active against the 1a, 1b, 2a, 2b, 3a, 4a, and 5a genotypes.
On to `CCN(CC)[C@@H](C(=O)N1CCC[C@H]1c1nc(-c2ccc(-c3ccc(-c4nc([C@@H]5CCCN5C(=O)[C@@H](c5ccccc5)N(CC)CC)[nH]c4C)cc3)cc2)c[nH]1)c1ccccc1` [Example E5a, (1R)-2-((2S)-2-(4-(4'-(2-((2S)-1-((2R)-2-(diethylamino)-2-phenylacetyl)-2-pyrrolidinyl)-1H-imidazol-4-yl)-4-biphenylyl)-5-methyl-1H-imidazol-2-yl)-1-pyrrolidinyl)-N,N-diethyl-2-oxo-1-phenylethanamine], for which the EC50 fell in the range of 0.001 to 0.999 nM.

With `COC(=O)NC(C)(C)C(=O)N1[C@@H](C)CC[C@H]1c1ncc(-c2ccc(-c3ccc(-c4cnc([C@@H]5CC[C@H](C)N5C(=O)C(C)(C)NC(=O)OC)[nH]4)cc3)cc2)[nH]1` [Example M156, methyl (2-((2S,5S)-2-(4-(4'-(2-((2S,5S)-1-(2-((methoxycarbonyl)amino)-2-methylpropanoyl)-5-methyl-2-pyrrolidinyl)-1H-imidazol-4-yl)-4-biphenylyl)-1H-imidazol-2-yl)-5-methyl-1-pyrrolidinyl)-1,1-dimethy 1-2-oxoethyl)carbamate], the EC50 is 1 to 99 nM.

As to `COC(=O)N[C@H](C(=O)N1CCC[C@H]1c1nc(-c2ccc(-c3ccc(-c4[nH]c([C@@H]5CCCN5C(=O)[C@@H](NC(=O)OC)[C@@H](C)OC)nc4C)cc3)cc2)c[nH]1)[C@@H](C)OC` [Example E5f, methyl ((1S,2R)-2-methoxy-1-(((2S)-2-(4-(4'-(2-((2S)-1-(N-(methoxycarbonyl)-O-methyl-L-threonyl)-2-pyrrolidinyl)-4-methyl-1H-imidazol-5-yl)-4-biphenylyl)-1H-imidazol-2-yl)-1-pyrrolidinyl)carbonyl)propyl)carbamate], the EC50 was 0.001 to 0.999 nM.

As for `CC(=O)N[C@@H](C(=O)N1[C@@H]2CC2C[C@H]1c1nc(-c2ccc(-c3ccc(-c4c[nH]c([C@@H]5C[C@H]6C[C@H]6N5C(=O)[C@H](NC(C)=O)C(C)C)n4)cc3)cc2)c[nH]1)C(C)C` (mixture of isomers) [Example M143, N-((1R)-1-(((1R,3S,5R)-3-(4-(4'-(2-((1R,3S,SR)-2-((2R)-2-acetamido-3-methylbutanoyl)-2-azabicyclo[3.1.0]hex-3-yl)-1H-imidazol-4-yl)-4-biphenylyl)-1H-imidazol-2-yl)-2-azabicyclo[3.1.0]hex-2-yl)carbonyl)-2-methylpropyl)acetamide], the EC50 fell in the range of 1 to 99 nM.

As to `COC(=O)N[C@H](C(=O)N1[C@@H]2C[C@@H]2C[C@H]1c1ncc(-c2ccc(-c3ccc(-c4cnc([C@@H]5C[C@H]6C[C@H]6N5C(=O)CCCC[C@@H]5SC[C@@H]6NC(=O)N[C@@H]65)[nH]4)cc3)cc2)[nH]1)C(C)C` [Example M139], the EC50 is 0.001 to 0.999 nM.

`Cc1nc([C@@H]2CCCN2C(=O)[C@@H](c2ccccc2)N2CCCCC2)[nH]c1-c1ccc(-c2ccc(-c3c[nH]c([C@@H]4CCCN4C(=O)[C@@H](c4ccccc4)N4CCCCC4)n3)cc2)cc1` [Example E5b, 1-((1R)-2-((2S)-2-(4-(4'-(4-methyl-2-((2S)-1-((2R)-2-phenyl-2-(1-piperidinyl)acetyl)-2-pyrrolidinyl)-1H-imidazol-5-yl)-4-biphenylyl)-1H-imidazol-2-yl)-1-pyrrolidinyl)-2-oxo-1-phenylethyl)piperidine]: the EC50 lay in the range of 0.001 to 0.999 nM.

Take `COC(=O)N[C@H](C(=O)N1CCC[C@H]1c1nc(-c2ccc(-c3ccc(-c4[nH]c([C@@H]5CCCN5C(=O)[C@@H](NC(=O)OC)[C@@H](C)OC)nc4CC(OC)OC)cc3)cc2)c[nH]1)[C@@H](C)OC` [Example J14a, methyl ((1S,2R)-1-(((2S)-2-(4-(2,2-dimethoxyethyl)-5-(4'-(2-((2S)-1-(N-(methoxycarbonyl)-O-methyl-L-threonyl)-2-pyrrolidinyl)-1H-imidazol-4-yl)-4-biphenylyl)-1H-imidazol-2-yl)-1-pyrrolidinyl)carbonyl)-2-methoxypropyl)car bamate]: the concentration giving a half-maximal response (EC50) lay within 0.001 to 0.999 nM.

As for `COC(=O)NCC(=O)N1[C@@H]2C[C@@H]2C[C@H]1c1ncc(-c2ccc(-c3ccc(-c4cnc([C@@H]5C[C@H]6C[C@H]6N5C(=O)CNC(=O)OC)[nH]4)cc3)cc2)[nH]1` (mixture of isomers) [Example M134, methyl (2-((1R,3S,SR)-3-(4-(4'-(2-((1R,3S,SR)-2-(((methoxycarbonyl)amino)acetyl)-2-azabicyclo[3.1.0]hex-3-yl)-1H-imidazol-4-yl)-4-biphenylyl)-1H-imidazol-2-yl)-2-azabicyclo[3.1.0]hex-2-yl)-2-oxoethyl) carbamate], the EC50 was 1 to 99 nM.

`COC(=O)N[C@H](C(=O)N1CC(F)(F)C[C@H]1c1nc(-c2ccc(-c3ccc(-c4c[nH]c([C@@H]5CCCN5C(=O)[C@@H](NC(=O)OC)C(C)C)n4)c(F)c3)cc2)c[nH]1)C(C)C` [Example J14e, methyl ((1S)-1-(((2S)-4,4-difluoro-2-(4-(3'-fluoro-4'-(2-((2S)-1-((2S)-2-((methoxycarbonyl)amino)-3-methylbutanoyl)-2-pyrrolidinyl)-1H-imidazol-4-yl)-4-biphenylyl)-1H-imidazol-2-yl)-1-pyrrolidinyl)carbonyl)-2-methylpropyl)carba mate]: the EC50 was 0.001 to 0.999 nM.

With `COC(=O)N[C@H](C(=O)N1CCC[C@H]1c1nc(-c2ccc(-c3ccc(-c4[nH]c([C@@H]5CCCN5C(=O)[C@@H](NC(=O)OC)C(C)C)nc4CC4OCCCO4)cc3)cc2)c[nH]1)C(C)C` [Example J14, methyl ((1S)-1-(((2S)-2-(4-(1,3-dioxan-2-ylmethyl)-5-(4'-(2-((2S)-1-((2S)-2-((methoxycarbonyl)amino)-3-methylbutanoyl)-2-pyrrolidinyl)-1H-imidazol-4-yl)-4-biphenylyl)-1H-imidazol-2-yl)-1-pyrrolidinyl)carbonyl)-2-methylpropyl)carba mate], the EC50 lay within 0.001 to 0.999 nM.

`COC(=O)N[C@H](C(=O)N1CCC[C@H]1c1nc(-c2ccc(-c3ccc(-c4[nH]c([C@@H]5CCCN5C(=O)[C@@H](NC(=O)OC)C(C)C)nc4CC(OC)OC)cc3)cc2)c[nH]1)C(C)C` [Example J14a.1, methyl ((1S)-1-(((2S)-2-(4-(2,2-dimethoxyethyl)-5-(4'-(2-((2S)-1-((2S)-2-((methoxycarbonyl)amino)-3-methylbutanoyl)-2-pyrrolidinyl)-1H-imidazol-4-yl)-4-biphenylyl)-1H-imidazol-2-yl)-1-pyrrolidinyl)carbonyl)-2-methylpropyl)carba mate]: the EC50 is 0.001 to 0.999 nM.

Regarding `CC(C)[C@H](O)C(=O)N1[C@@H](C)CC[C@H]1c1nc(-c2ccc(-c3ccc(-c4c[nH]c([C@@H]5CC[C@H](C)N5C(=O)[C@@H](O)C(C)C)n4)cc3)cc2)c[nH]1` [Example M161, (2S,2'S)-1,1'-(4,4'-biphenyldiylbis(1H-imidazole-4,2-diyl((2S,5S)-5-methyl-2,1-pyrrolidinediyl)))bis(3-methyl-1-oxo-2-butanol)], the concentration giving a half-maximal response (EC50) lay in the range of 1 to 99 nM.

Regarding `CCCc1[nH]c([C@@H]2CCCN2C(=O)[C@@H](c2ccccc2)N(CC)CC)nc1-c1ccc(-c2ccc(-c3c[nH]c([C@@H]4CCCN4C(=O)[C@@H](c4ccccc4)N(CC)CC)n3)cc2)cc1` [Example J14c.1, (1R)-2-((2S)-2-(4-(4'-(2-((2S)-1-((2R)-2-(diethylamino)-2-phenylacetyl)-2-pyrrolidinyl)-1H-imidazol-4-yl)-4-biphenylyl)-5-propyl-1H-imidazol-2-yl)-1-pyrrolidinyl)-N,N-diethyl-2-oxo-1-phenylethanamine], the EC50 lay in the range of 0.001 to 0.999 nM.

These data come from patent EP2242752B1, “[…] IMIDAZOLES AS HEPATITIS C VIRUS INHIBITORS” (Bristol-Myers Squibb Company, priority 2008, dated 2009).
